Test results published in US9309250B2, “Substituted pyrrolo[2,3-b]pyrazines as ATR kinase inhibitors” (Vertex Pharmaceuticals Incorporated, priority 2011, dated 2016).

These compounds were tested against T1, full-length ATR (Homo sapiens, UniProt Q13535) (assay: ATR Inhibition Assay (radioactive-phosphate incorporation)). Conditions: Ki(app); 5 nM full-length ATR, 10 μM ATP, 800 μM target peptide, 25° C.
T1 construct: Assays were carried out at 25° C. in the presence of 5 nM full-length ATR
Type: biochemical
Description: Compounds were screened for their ability to inhibit ATR kinase using a radioactive-phosphate incorporation assay. Assays were carried out in a mixture of 50 mM Tris/HCl (pH 7.5), 10 mM MgCl2 and 1 mM DTT. Final substrate concentrations were 10 μM [γ-33P]ATP (3mCi 33P ATP/mmol ATP, Perkin Elmer) and 800 μM target peptide (ASELPASQPQPFSAKKK) (SEQ. ID. NO: 1).
Assays were carried out at 25° C. in the presence of 5 nM full-length ATR. An assay stock buffer solution was prepared containing all of the reagents listed above, with the exception of ATP and the test compound of interest. 13.5 μL of the stock solution was placed in a 96 well plate followed by addition of 2 μL of DMSO stock containing serial dilutions of the test compound (typically starting from a final concentration of 15 μM with 3-fold serial dilutions) in duplicate (final DMSO concentration 7%). The plate was pre-incubated for 10 minutes at 25° C. and the reaction initiated by addition of 15 μL [γ-33P]ATP (final concentration 10 μM).
The reaction was stopped after […] by the addition of 30 μL 0.1M phosphoric acid containing 2 mM ATP. A multiscreen phosphocellulose filter 96-well plate (Millipore, Cat no. MAPHN0B50) was pretreated with 100 μL 0.2M phosphoric acid prior to the addition of 45 μL of the stopped assay mixture. The plate was washed with 5×200 μL 0.2M phosphoric acid. After drying, 100 μL Optiphase ‘SuperMix’ liquid scintillation cocktail (Perkin Elmer) was added to the well prior to scintillation counting (1450 Microbeta Liquid Scintillation Counter, Wallac).
After removing mean background values for all of the data points, Ki(app) data were calculated from non-linear regression analysis of the initial rate data using the Prism software package (GraphPad Prism version 3.0cx for Macintosh, GraphPad Software, San Diego Calif., USA).
Below is a chart showing the ATR Inhibition Ki values of compounds of the disclosure.

T1 sequence (Q13535 whole entry): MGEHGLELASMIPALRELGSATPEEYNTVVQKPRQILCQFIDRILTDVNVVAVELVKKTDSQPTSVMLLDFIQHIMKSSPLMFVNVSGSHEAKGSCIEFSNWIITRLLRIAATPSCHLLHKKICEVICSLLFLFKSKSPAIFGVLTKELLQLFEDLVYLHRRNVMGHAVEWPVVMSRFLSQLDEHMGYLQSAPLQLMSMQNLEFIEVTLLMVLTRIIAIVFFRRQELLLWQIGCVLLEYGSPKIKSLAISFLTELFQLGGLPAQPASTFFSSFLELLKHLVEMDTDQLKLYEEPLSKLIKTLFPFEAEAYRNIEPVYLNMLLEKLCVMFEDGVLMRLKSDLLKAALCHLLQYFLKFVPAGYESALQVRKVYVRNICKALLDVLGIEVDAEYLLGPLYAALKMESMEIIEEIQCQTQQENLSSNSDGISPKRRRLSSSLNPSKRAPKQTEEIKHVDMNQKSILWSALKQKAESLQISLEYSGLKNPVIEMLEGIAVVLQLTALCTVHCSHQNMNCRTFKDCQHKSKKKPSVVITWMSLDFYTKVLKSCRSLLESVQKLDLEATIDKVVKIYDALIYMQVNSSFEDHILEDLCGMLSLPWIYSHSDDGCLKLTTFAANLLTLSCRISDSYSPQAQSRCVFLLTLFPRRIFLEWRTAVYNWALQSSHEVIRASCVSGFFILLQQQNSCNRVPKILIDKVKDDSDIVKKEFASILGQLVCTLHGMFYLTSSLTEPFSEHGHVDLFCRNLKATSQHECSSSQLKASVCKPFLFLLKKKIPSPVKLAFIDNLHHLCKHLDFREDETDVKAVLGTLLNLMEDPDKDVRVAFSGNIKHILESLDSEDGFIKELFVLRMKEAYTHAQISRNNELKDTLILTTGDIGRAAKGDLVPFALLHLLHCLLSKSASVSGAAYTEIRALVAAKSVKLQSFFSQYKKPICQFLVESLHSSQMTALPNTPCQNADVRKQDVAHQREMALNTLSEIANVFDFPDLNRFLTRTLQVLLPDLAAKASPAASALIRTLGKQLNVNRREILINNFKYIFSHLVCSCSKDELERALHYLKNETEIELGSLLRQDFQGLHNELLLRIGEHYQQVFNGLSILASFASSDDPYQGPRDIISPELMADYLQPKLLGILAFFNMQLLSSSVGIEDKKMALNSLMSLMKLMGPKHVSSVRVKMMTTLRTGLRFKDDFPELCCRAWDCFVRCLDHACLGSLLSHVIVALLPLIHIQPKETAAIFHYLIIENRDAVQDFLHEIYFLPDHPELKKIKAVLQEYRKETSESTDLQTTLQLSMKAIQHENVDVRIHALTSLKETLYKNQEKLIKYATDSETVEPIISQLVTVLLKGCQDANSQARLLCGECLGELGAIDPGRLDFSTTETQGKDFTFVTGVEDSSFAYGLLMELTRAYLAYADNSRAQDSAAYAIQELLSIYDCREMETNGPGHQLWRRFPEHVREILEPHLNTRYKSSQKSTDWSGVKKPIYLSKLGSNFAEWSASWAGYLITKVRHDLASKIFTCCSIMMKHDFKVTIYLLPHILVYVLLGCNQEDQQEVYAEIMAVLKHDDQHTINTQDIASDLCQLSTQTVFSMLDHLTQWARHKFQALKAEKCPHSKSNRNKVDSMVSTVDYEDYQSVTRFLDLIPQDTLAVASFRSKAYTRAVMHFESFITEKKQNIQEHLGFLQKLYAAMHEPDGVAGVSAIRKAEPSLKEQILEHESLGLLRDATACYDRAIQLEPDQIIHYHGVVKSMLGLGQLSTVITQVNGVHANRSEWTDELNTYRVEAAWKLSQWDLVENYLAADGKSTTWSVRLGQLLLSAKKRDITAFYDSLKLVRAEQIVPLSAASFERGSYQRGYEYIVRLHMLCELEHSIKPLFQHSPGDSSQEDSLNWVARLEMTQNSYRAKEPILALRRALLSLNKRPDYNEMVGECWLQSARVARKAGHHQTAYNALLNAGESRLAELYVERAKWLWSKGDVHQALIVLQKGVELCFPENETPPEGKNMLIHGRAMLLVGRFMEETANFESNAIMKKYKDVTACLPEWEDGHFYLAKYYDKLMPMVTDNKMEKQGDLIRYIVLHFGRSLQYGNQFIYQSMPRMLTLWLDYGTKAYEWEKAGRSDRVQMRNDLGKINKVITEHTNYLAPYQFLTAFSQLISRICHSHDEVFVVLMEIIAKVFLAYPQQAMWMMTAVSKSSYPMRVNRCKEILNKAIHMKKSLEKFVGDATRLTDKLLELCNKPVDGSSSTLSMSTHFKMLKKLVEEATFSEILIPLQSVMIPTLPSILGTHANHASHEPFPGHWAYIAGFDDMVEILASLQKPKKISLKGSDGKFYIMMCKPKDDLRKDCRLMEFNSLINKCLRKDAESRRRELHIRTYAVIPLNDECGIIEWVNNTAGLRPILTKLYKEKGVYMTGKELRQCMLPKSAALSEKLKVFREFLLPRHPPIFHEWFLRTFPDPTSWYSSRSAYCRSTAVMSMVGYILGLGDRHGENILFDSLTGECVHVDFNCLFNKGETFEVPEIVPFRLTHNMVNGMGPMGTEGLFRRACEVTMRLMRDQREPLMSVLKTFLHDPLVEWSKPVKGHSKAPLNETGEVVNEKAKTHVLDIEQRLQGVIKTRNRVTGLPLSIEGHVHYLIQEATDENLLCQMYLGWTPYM

Row | Ki [nM] | SMILES
1 | 50 to 100 | CC(C)S(=O)(=O)c1ccc(-c2cnc3[nH]cc(N4Cc5cc(Br)ccc5C4=O)c3n2)cc1 [Compound I-9, 5-bromo-2-(2-(4-(isopropylsulfonyl)phenyl)-5H-pyrrolo[2,3-b]pyrazin-7-yl)isoindolin-1-one]
2 | 100 to 250 | CC(C)S(=O)(=O)c1ccc(-c2cnc3[nH]cc(N4Cc5cc(CN)ccc5C4=O)c3n2)cc1 [Compound I-15, 5-(aminomethyl)-2-(2-(4-(isopropylsulfonyl)phenyl)-5H-pyrrolo[2,3-b]pyrazin-7-yl)isoindolin-1-one]
3 | ≤ 50 | CC(C)S(=O)(=O)c1ccc(-c2cnc3[nH]cc(N4Cc5cc(N6CCCC(N)C6)ccc5C4=O)c3n2)cc1 (centres unmarked) [Compound I-30, 5-(3-aminopiperidin-1-yl)-2-(2-(4-(isopropylsulfonyl)phenyl)-5H-pyrrolo[2,3-b]pyrazin-7-yl)isoindolin-1-one]
4 | 50 to 100 | CC(C)S(=O)(=O)c1ccc(-c2cnc3[nH]cc(N4Cc5c(Cl)cccc5C4=O)c3n2)cc1 [Compound I-11, 4-chloro-2-(2-(4-(isopropylsulfonyl)phenyl)-5H-pyrrolo[2,3-b]pyrazin-7-yl)isoindolin-1-one]
5 | ≤ 50 | CC(C)(C#N)c1cc(-c2cnc3[nH]cc(N4Cc5ccccc5C4=O)c3n2)ccn1 [Compound I-6, 2-methyl-2-(4-(7-(1-oxoisoindohn-2-yl)-5H-pyrrolo[2,3-b]pyrazin-2-yl)pyridin-2-yl)propanenitrile]
6 | ≤ 50 | CC(C)S(=O)(=O)c1ccc(-c2cnc3[nH]cc(N4Cc5cccc([N+](=O)[O-])c5C4=O)c3n2)cc1 [Compound I-14, 2-(2-(4-(isopropylsulfonyl)phenyl)-5H-pyrrolo[2,3-b]pyrazin-7-yl)-7-nitroisoindolin-1-one]
7 | ≤ 50 | CC(C)S(=O)(=O)c1ccc(-c2cnc3[nH]cc(N4Cc5cc(N(C)CCCN(C)C)ccc5C4=O)c3n2)cc1 [Compound I-36, 5-((3-(dimethylamino)propyl)(methyl)amino)-2-(2-(4-(isopropylsulfonyl)phenyl)-5H-pyrrolo[2,3-b]pyrazin-7-yl)isoindolin-1-one]
8 | ≤ 50 | CC(C)S(=O)(=O)c1ccc(-c2cnc3[nH]cc(N4Cc5c(CN)cccc5C4=O)c3n2)cc1 [Compound I-17, 4-(aminomethyl)-2-(2-(4-(isopropylsulfonyl)phenyl)-5H-pyrrolo[2,3-b]pyrazin-7-yl)isoindolin-1-one]
9 | 100 to 250 | CC(C)S(=O)(=O)c1ccc(-c2cnc3[nH]cc(N4CCc5ccccc5C4=O)c3n2)cc1 [Compound I-2, 2-(2-(4-(isopropylsulfonyl)phenyl)-5H-pyrrolo[2,3-b]pyrazin-7-yl)-3,4-dihydroisoquinolin-1(2H)-one]
10 | ≤ 50 | CC(C)S(=O)(=O)c1ccc(-c2cnc3[nH]cc(N4Cc5cc(N6CCC(N(C)C)CC6)ccc5C4=O)c3n2)cc1 [Compound I-37, 5-(4-(dimethylamino)piperidin-1-yl)-2-(2-(4-(isopropylsulfonyl)phenyl)-5H-pyrrolo[2,3-b]pyrazin-7-yl)isoindolin-1-one]
11 | ≤ 50 | CC(C)S(=O)(=O)c1ccc(-c2cnc3[nH]cc(N4Cc5ccc(CN)cc5C4=O)c3n2)cc1 [Compound I-20, 6-(aminomethyl)-2-(2-(4-(isopropylsulfonyl)phenyl)-5H-pyrrolo[2,3-b]pyrazin-7-yl)isoindolin-1-one]
12 | ≤ 50 | O=C1c2c(Cl)cccc2CN1c1c[nH]c2ncc(-c3ccc(S(=O)(=O)C4CCCNC4)cc3)nc12 (centres unmarked) [Compound I-24, 7-chloro-2-(2-(4-(piperidin-3-ylsulfonyl)phenyl)-5H-pyrrolo[2,3-b]pyrazin-7-yl)isoindolin-1-one]
13 | ≤ 50 | CC(C)S(=O)(=O)c1ccc(-c2cnc3[nH]cc(N4Cc5cccc(N)c5C4=O)c3n2)cc1 [Compound I-21, 7-amino-2-(2-(4-(isopropylsulfonyl)phenyl)-5H-pyrrolo[2,3-b]pyrazin-7-yl)isoindolin-1-one]
14 | ≤ 50 | CC(C)S(=O)(=O)c1ccc(-c2cnc3[nH]cc(N4Cc5cccc(CN)c5C4=O)c3n2)cc1 [Compound I-19, 7-(aminomethyl)-2-(2-(4-(isopropylsulfonyl)phenyl)-5H-pyrrolo[2,3-b]pyrazin-7-yl)isoindolin-1-one]
15 | ≤ 50 | CC(C)S(=O)(=O)c1ccc(-c2cnc3[nH]cc(N4Cc5cccc(N(C)C)c5C4=O)c3n2)cc1 [Compound I-45, 7-(dimethylamino)-2-(2-(4-(isopropylsulfonyl)phenyl)-5H-pyrrolo[2,3-b]pyrazin-7-yl)isoindolin-1-one]
16 | 50 to 100 | CN(C)C(=O)c1ccc(-c2cnc3[nH]cc(N4Cc5ccccc5C4=O)c3n2)cc1 [Compound I-4, N,N-dimethyl-4-(7-(1-oxoisoindolin-2-yl)-5H-pyrrolo[2,3-b]pyrazin-2-yl)benzamide]
17 | 50 to 100 | CNc1cccc2c1C(=O)N(c1c[nH]c3ncc(-c4ccc(S(=O)(=O)C(C)C)cc4)nc13)C2 [Compound I-44, 2-(2-(4-(isopropylsulfonyl)phenyl)-5H-pyrrolo[2,3-b]pyrazin-7-yl)-7-(methylamino)isoindolin-1-one]
18 | ≤ 50 | CC(C)S(=O)(=O)c1ccc(-c2cnc3[nH]cc(N4Cc5cc(N6CCNCC6)ccc5C4=O)c3n2)cc1 [Compound I-28, 2-(2-(4-(isopropylsulfonyl)phenyl)-5H-pyrrolo[2,3-b]pyrazin-7-yl)-5-(piperazin-1-yl)isoindolin-1-one]
19 | ≤ 50 | CC(C)S(=O)(=O)c1ccc(-c2cnc3[nH]cc(N4Cc5cc(N6CC[C@H](N)C6)ccc5C4=O)c3n2)cc1 [Compound I-41, (S)-5-(3-aminopyrrolidin-1-yl)-2-(2-(4-(isopropylsulfonyl)phenyl)-5H-pyrrolo[2,3-b]pyrazin-7-yl)isoindolin-1-one]
20 | ≤ 50 | CC(C)S(=O)(=O)c1ccc(-c2cnc3[nH]cc(N4Cc5ccc(N6CC[C@H](N)C6)cc5C4=O)c3n2)cc1 [Compound I-27, (S)-6-(3-aminopyrrolidin-1-yl)-2-(2-(4-(isopropylsulfonyl)phenyl)-5H-pyrrolo[2,3-b]pyrazin-7-yl)isoindolin-1-one]
21 | ≤ 50 | CC1c2ccccc2C(=O)N1c1c[nH]c2ncc(-c3ccc(S(=O)(=O)C(C)C)cc3)nc12 (centres unmarked) [Compound I-3, 2-(2-(4-(isopropylsulfonyl)phenyl)-5H-pyrrolo[2,3-b]pyrazin-7-yl)-3-methylisoindolin-1-one]
22 | ≤ 50 | CC(C)S(=O)(=O)c1ccc(-c2cnc3[nH]cc(N4Cc5cc(OCCN(C)C)ccc5C4=O)c3n2)cc1 [Compound I-47, 5-(2-(dimethylamino)ethoxy)-2-(2-(4-(isopropylsulfonyl)phenyl)-5H-pyrrolo[2,3-b]pyrazin-7-yl)isoindolin-1-one]
23 | ≤ 50 | CC(C)S(=O)(=O)c1ccc(-c2cnc3[nH]cc(N4Cc5cccc(C#N)c5C4=O)c3n2)cc1 [Compound I-18, 2-(2-(4-(isopropylsulfonyl)phenyl)-5H-pyrrolo[2,3-b]pyrazin-7-yl)-3-oxoisoindoline-4-carbonitrile]
24 | ≤ 50 | CC(C)S(=O)(=O)c1ccc(-c2cnc3[nH]cc(N4C(=O)c5ccccc5C4CCO)c3n2)cc1 (centres unmarked) [Compound I-48, 3-(2-hydroxyethyl)-2-(2-(4-(isopropylsulfonyl)phenyl)-5H-pyrrolo[2,3-b]pyrazin-7-yl)isoindolin-1-one]
25 | ≤ 50 | CC(C)S(=O)(=O)c1ccc(-c2cnc3[nH]cc(N4Cc5ccccc5C4=O)c3n2)cc1 [Compound I-1, 2-(2-(4-(isopropylsulfonyl)phenyl)-5H-pyrrolo[2,3-b]pyrazin-7-yl)isoindolin-1-one]
26 | ≤ 50 | CC(C)S(=O)(=O)c1ccc(-c2cnc3[nH]cc(N4Cc5cc(NCCN)ccc5C4=O)c3n2)cc1 [Compound I-34, 5-((2-aminoethyl)amino)-2-(2-(4-(isopropylsulfonyl)phenyl)-5H-pyrrolo[2,3-b]pyrazin-7-yl)isoindolin-1-one]
27 | ≤ 50 | CC(C)S(=O)(=O)c1ccc(-c2cnc3[nH]cc(N4Cc5cc(N6CC[C@H](CN)C6)ccc5C4=O)c3n2)cc1 [Compound I-29, (R)-5-(3-(aminomethyl)pyrrolidin-1-yl)-2-(2-(4-(isopropylsulfonyl)phenyl)-5H-pyrrolo[2,3-b]pyrazin-7-yl)isoindolin-1-one]
28 | ≤ 50 | O=C1c2c(Cl)cccc2CN1c1c[nH]c2ncc(-c3ccc(S(=O)(=O)C4CCNCC4)cc3)nc12 [Compound I-23, 7-chloro-2-(2-(4-(piperidin-4-ylsulfonyl)phenyl)-5H-pyrrolo[2,3-b]pyrazin-7-yl)isoindolin-1-one]

Row | SMILES | Ki [nM]
29 | CC(C)S(=O)(=O)c1ccc(-c2cnc3[nH]cc(N4Cc5cc(N(C)C6CCNCC6)ccc5C4=O)c3n2)cc1 [Compound I-31, 2-(2-(4-(isopropylsulfonyl)phenyl)-5H-pyrrolo[2,3-b]pyrazin-7-yl)-5-(methyl(piperidin-4-yl)amino)isoindolin-1-one] | ≤ 50
